Like-named read-outs stand apart in the source and are kept apart here.
Tests used:
Assay type in all cases: in vivo
[1] = test system: crabgrass (Digitaria sanguinalis L.); assay: Foliar treatment pot test, visual growth inhibition rate, crabgrass (DS)
From the text: (§1) When the herbicidal activity in a case where two active ingredients are combined, is larger than the simple sum of the respective herbicidal activities of the two active ingredients (the expected activity), it is called a synergistic effect. The activity expected by the combination of two active ingredients can be calculated as follows (Colby S. R., “Weed”, vol. 15, p. 20-22, 1967). E=α+β−(α×β÷100) where
(§2) Upland field soil was put into a 1/1,000,000 hectare pot, and seeds of various plants (barnyardgrass (Echinochloa crus-qalli L.), crabgrass (Digitaria sanguinalis L.), giant foxtail (Setaria faberi Herrm.), velvetleaf (Abutilon theophrasti MEDIC.) and prickly sida (Sida spinosa L.)) were sown. When the respective plants reached predetermined leaf stage, herbicidal compositions in predetermined amounts were diluted with water in an amount corresponding to 300 L/ha and applied for foliar treatment by a small sprayer.
(§3) Further, in accordance with the above Colby's formula, the growth inhibition rate (calculated value) was calculated. In Tables, with respect to the compound Q, Compound Nos. in Table 1 are described, and with respect to other herbicidal compounds, common names are described. Further, in Tables, barnyardgrass is represented by “EC”, crabgrass by “DS”, giant foxtail by “SF”, velvetleaf by “AT”, and prickly sida by “SS”.

[2] = test system: velvetleaf (Abutilon theophrasti MEDIC.); assay: Foliar treatment pot test, visual growth inhibition rate, velvetleaf (AT)
From the text: as §1, §2, §3

[3] = test system: prickly sida (Sida spinosa L.); assay: Foliar treatment pot test, visual growth inhibition rate, prickly sida (SS); details: 3.0-3.3 leaf stage
From the text: as §1, §2, §3

[4] = Digitaria sanguinalis, foliar, 168 h, 3.5-5.0 leaf stage, 7 DAT, read-out: Growth inhibition rate (%) of DS Measured value
[5] = Abutilon theophrasti, foliar, 168 h, 2.3-3.5 leaf stage, 7 DAT, read-out: Growth inhibition rate (%) of AT Measured value
[6] = Digitaria sanguinalis, foliar, 480 h, 4.5-5.2 leaf stage, 20 DAT, read-out: Growth inhibition rate (%) of DS Measured value
[7] = Abutilon theophrasti, foliar, 480 h, 4.2-4.3 leaf stage, 20 DAT, read-out: Growth inhibition rate (%) of AT Measured value

Structure (SMILES): CCOCN(C(=O)CCl)c1c(C)cccc1CC [Acetochlor, acetochlor]
- inhibition at 63 g/ha [1, 4]: 0%
- inhibition at 125 g/ha [1, 4]: 0%
- inhibition at 250 g/ha [1, 4]: 0%
- inhibition at 500 g/ha ([1]; Digitaria sanguinalis, foliar, 168 h, 3.5-5.0 leaf stage, 7 DAT, 500 g/ha, read-out: Growth inhibition rate (%) of DS Measured value): 0%
- inhibition at 750 g/ha ([1]; Digitaria sanguinalis, foliar, 168 h, 3.5-5.0 leaf stage, 7 DAT, 750 g/ha, read-out: Growth inhibition rate (%) of DS Measured value): 10%
- inhibition at 150 g/ha ([1]; Digitaria sanguinalis, foliar, 336 h, 4.0-5.0 leaf stage, 14 DAT, 150 g/ha, read-out: Growth inhibition rate (%) of DS Measured value): 0%
- inhibition at 400 g/ha ([1]; Digitaria sanguinalis, foliar, 504 h, 3.5-4.3 leaf stage, 21 DAT, 400 g/ha, read-out: Growth inhibition rate (%) of DS Measured value): 0%
- inhibition at 150 g/ha ([1]; Digitaria sanguinalis, foliar, 504 h, 4.0-5.1 leaf stage, 21 DAT, 150 g/ha, read-out: Growth inhibition rate (%) of DS Measured value): 0%
- inhibition at 63 g/ha [2, 5]: 0%
- inhibition at 125 g/ha [2, 5]: 0%
- inhibition at 250 g/ha [2, 5]: 0%
- inhibition at 500 g/ha ([2]; Abutilon theophrasti, foliar, 168 h, 2.3-3.5 leaf stage, 7 DAT, 500 g/ha, read-out: Growth inhibition rate (%) of AT Measured value): 10%
- inhibition at 750 g/ha ([2]; Abutilon theophrasti, foliar, 168 h, 2.3-3.5 leaf stage, 7 DAT, 750 g/ha, read-out: Growth inhibition rate (%) of AT Measured value): 0%
- inhibition at 150 g/ha ([2]; Abutilon theophrasti, foliar, 336 h, 3.0-4.0 leaf stage, 14 DAT, 150 g/ha, read-out: Growth inhibition rate (%) of AT Measured value): 0%
- inhibition at 300 g/ha ([2]; Abutilon theophrasti, foliar, 480 h, 3.1-3.4 leaf stage, 20 DAT, 300 g/ha, read-out: Growth inhibition rate (%) of AT Measured value): 0%
- inhibition at 400 g/ha ([2]; Abutilon theophrasti, foliar, 504 h, 3.0-3.8 leaf stage, 21 DAT, 400 g/ha, read-out: Growth inhibition rate (%) of AT Measured value): 0%
- inhibition at 100 g/ha ([3]; Sida spinosa, foliar, 336 h, 14 DAT, read-out: Growth inhibition rate (%) of SS Measured value): 0%
- inhibition at 200 g/ha ([3]; Sida spinosa, foliar, 336 h, 14 DAT, 200 g/ha, read-out: Growth inhibition rate (%) of SS Measured value): 0%
- inhibition at 400 g/ha ([3]; Sida spinosa, foliar, 336 h, 14 DAT, 400 g/ha, read-out: Growth inhibition rate (%) of SS Measured value): 10%
- inhibition at 800 g/ha ([3]; Sida spinosa, foliar, 336 h, 14 DAT, 800 g/ha, read-out: Growth inhibition rate (%) of SS Measured value): 30%

Structure (SMILES): CCc1cccc(C)c1N(C(=O)CCl)[C@@H](C)COC [S-Metolachlor, S-metolachlor]
- Growth inhibition rate (%) of DS Measured value ([1]; 3.5-4.3 leaf stage, 21 DAT, 400 g/ha): 0%
- Growth inhibition rate (%) of DS Measured value ([1]; 4.0-5.0 leaf stage, 14 DAT, 150 g/ha): 0%
- Growth inhibition rate (%) of DS Measured value ([1]; 4.0-5.1 leaf stage, 21 DAT, 300 g/ha): 0%
- Growth inhibition rate (%) of DS Measured value ([1]; 5.0-6.0 leaf stage, 14 DAT, 800 g/ha): 0%
- Growth inhibition rate (%) of AT Measured value ([2]; 3.0-3.5 leaf stage, 21 DAT, 300 g/ha): 0%
- Growth inhibition rate (%) of AT Measured value ([2]; 3.0-3.8 leaf stage, 21 DAT, 400 g/ha): 0%
- Growth inhibition rate (%) of AT Measured value ([2]; 3.0-4.0 leaf stage, 14 DAT, 150 g/ha): 0%
- Growth inhibition rate (%) of AT Measured value ([2]; 4.6-5.3 leaf stage, 14 DAT, 1200 g/ha): 0%
- Growth inhibition rate (%) of SS Measured value ([3]; 21 DAT, 800 g/ha): 20%

Structure (SMILES): CCCCCCCC(=O)Oc1c(Br)cc(C#N)cc1Br [Bromoxynil-octanoate, bromoxynil-octanoate]
- inhibition at 63 g/ha ([1]; Digitaria sanguinalis, foliar, 336 h, 4.0-5.0 leaf stage, 14 DAT, read-out: Growth inhibition rate (%) of DS Measured value): 0%
- inhibition at 63 g/ha ([1]; Digitaria sanguinalis, foliar, 504 h, 4.0-5.1 leaf stage, 21 DAT, read-out: Growth inhibition rate (%) of DS Measured value): 0%
- inhibition at 77 g/ha ([1]; Digitaria sanguinalis, foliar, 528 h, 3.1-4.0 leaf stage, 22 DAT, 77 g/ha, read-out: Growth inhibition rate (%) of DS Measured value): 0%
- inhibition at 30 g/ha ([1]; Digitaria sanguinalis, foliar, 552 h, 4.5-5.3 leaf stage, 23 DAT, 30 g/ha, read-out: Growth inhibition rate (%) of DS Measured value): 25%
- inhibition at 60 g/ha ([1]; Digitaria sanguinalis, foliar, 552 h, 4.5-5.3 leaf stage, 23 DAT, 60 g/ha, read-out: Growth inhibition rate (%) of DS Measured value): 10%
- inhibition at 120 g/ha ([1]; Digitaria sanguinalis, foliar, 552 h, 4.5-5.3 leaf stage, 23 DAT, 120 g/ha, read-out: Growth inhibition rate (%) of DS Measured value): 45%
- inhibition at 63 g/ha ([2]; Abutilon theophrasti, foliar, 504 h, 3.0-3.5 leaf stage, 21 DAT, read-out: Growth inhibition rate (%) of AT Measured value): 10%
- inhibition at 100 g/ha ([2]; Abutilon theophrasti, foliar, 528 h, 4.0-4.3 leaf stage, 22 DAT, 100 g/ha, read-out: Growth inhibition rate (%) of AT Measured value): 25%
- inhibition at 30 g/ha ([2]; Abutilon theophrasti, foliar, 552 h, 3.0-4.2 leaf stage, 23 DAT, 30 g/ha, read-out: Growth inhibition rate (%) of AT Measured value): 0%
- inhibition at 60 g/ha ([2]; Abutilon theophrasti, foliar, 552 h, 3.0-4.2 leaf stage, 23 DAT, 60 g/ha, read-out: Growth inhibition rate (%) of AT Measured value): 0%
- inhibition at 120 g/ha ([2]; Abutilon theophrasti, foliar, 552 h, 3.0-4.2 leaf stage, 23 DAT, 120 g/ha, read-out: Growth inhibition rate (%) of AT Measured value): 0%
- inhibition at 200 g/ha ([2]; Abutilon theophrasti, foliar, 576 h, 3.2-4.1 leaf stage, 24 DAT, 200 g/ha, read-out: Growth inhibition rate (%) of AT Measured value): 100%
- inhibition at 25 g/ha ([3]; Sida spinosa, foliar, 528 h, 22 DAT, 25 g/ha, read-out: Growth inhibition rate (%) of SS Measured value): 40%
- inhibition at 50 g/ha ([3]; Sida spinosa, foliar, 528 h, 22 DAT, 50 g/ha, read-out: Growth inhibition rate (%) of SS Measured value): 50%
- inhibition at 100 g/ha ([3]; Sida spinosa, foliar, 528 h, 22 DAT, read-out: Growth inhibition rate (%) of SS Measured value): 50%

Structure (SMILES): CCc1cc(C)cc(CC)c1-c1c(OC(=O)C(C)(C)C)n2n(c1=O)CCOCC2 [Pinoxaden]
- inhibition at 25 g/ha ([1]; Digitaria sanguinalis, foliar, 504 h, 4.0-5.1 leaf stage, 21 DAT, 25 g/ha, read-out: Growth inhibition rate (%) of DS Measured value): 70%
- inhibition at 50 g/ha ([1]; Digitaria sanguinalis, foliar, 504 h, 4.0-5.1 leaf stage, 21 DAT, 50 g/ha, read-out: Growth inhibition rate (%) of DS Measured value): 90%
- inhibition at 100 g/ha ([1]; Digitaria sanguinalis, foliar, 504 h, 4.0-5.1 leaf stage, 21 DAT, 100 g/ha, read-out: Growth inhibition rate (%) of DS Measured value): 70%
- inhibition at 25 g/ha ([2]; Abutilon theophrasti, foliar, 504 h, AT 4.0-4.3 leaf stage, 21 DAT, active ingredient 25 g/ha, read-out: Growth inhibition rate (%) of AT Measured value): 0%
- inhibition at 50 g/ha ([2]; Abutilon theophrasti, foliar, 504 h, AT 4.0-4.3 leaf stage, 21 DAT, active ingredient 50 g/ha, read-out: Growth inhibition rate (%) of AT Measured value): 0%
- inhibition at 100 g/ha ([2]; Abutilon theophrasti, foliar, 504 h, AT 4.0-4.3 leaf stage, 21 DAT, active ingredient 100 g/ha, read-out: Growth inhibition rate (%) of AT Measured value): 0%

Structure (SMILES): CCC(CC)Nc1c([N+](=O)[O-])cc(C)c(C)c1[N+](=O)[O-] [Pendimethalin, pendimethalin]
- inhibition at 62.5 g/ha ([1]; Digitaria sanguinalis, foliar, 480 h, 4.5-5.2 leaf stage, 20 DAT, 62.5 g/ha, read-out: Growth inhibition rate (%) of DS Measured value): 0%
- inhibition at 125 g/ha [1, 6]: 0%
- inhibition at 250 g/ha [1, 6]: 0%
- inhibition at 100 g/ha ([2]; Abutilon theophrasti, foliar, 312 h, 3.3-4.2 leaf stage, 13 DAT, 100 g/ha, read-out: Growth inhibition rate (%) of AT Measured value): 25%
- inhibition at 125 g/ha [2, 7]: 20%
- inhibition at 250 g/ha [2, 7]: 38%

Structure (SMILES): CC(C)N1C(=O)c2ccccc2NS1(=O)=O [Bentazone-sodium, bentazone-sodium]
- inhibition at 200 g/ha ([1]; Digitaria sanguinalis, foliar, 528 h, 4.0-5.0 leaf stage, 22 DAT, 200 g/ha, read-out: Growth inhibition rate (%) of DS Measured value): 0%
- inhibition at 200 g/ha ([1]; Digitaria sanguinalis, foliar, 552 h, 4.0-5.1 leaf stage, 23 DAT, 200 g/ha, read-out: Growth inhibition rate (%) of DS Measured value): 0%
- inhibition at 100 g/ha ([2]; Abutilon theophrasti, foliar, 528 h, 4.1-4.5 leaf stage, 22 DAT, 100 g/ha, read-out: Growth inhibition rate (%) of AT Measured value): 0%
- inhibition at 200 g/ha ([2]; Abutilon theophrasti, foliar, 552 h, 3.0-3.5 leaf stage, 23 DAT, 200 g/ha, read-out: Growth inhibition rate (%) of AT Measured value): 30%

Structure (SMILES): CCOCCN(C(=O)CCl)C(=C(C)C)c1ccccc1 [Pethoxamid, pethoxamid]
- Growth inhibition rate (%) of DS Measured value ([1]; 3.6-3.8 leaf stage, 20 DAT, 100 g/ha): 0%
- Growth inhibition rate (%) of DS Measured value ([1]; 3.6-3.8 leaf stage, 20 DAT, 200 g/ha): 0%
- Growth inhibition rate (%) of DS Measured value ([1]; 3.6-3.8 leaf stage, 20 DAT, 400 g/ha): 0%
- Growth inhibition rate (%) of DS Measured value ([1]; 4.4-5.0 leaf stage, 13 DAT, 200 g/ha): 0%
- Growth inhibition rate (%) of AT Measured value ([2]; 3.3-4.2 leaf stage, 13 DAT, 200 g/ha): 0%
